Measured values as given in patent US11491129B2, “Oral formulations of bipolar trans carotenoids” (priority 2010, dated 2022).

How the values were obtained:
[1] = Behaviour of TSC under acidic conditions (stomach); assay type: physicochemical
From the text: TSC is precipitated under acidic conditions, such as those which exist in the stomach. […] TSC is not stable in acidic conditions and will be converted to the cis isomer which can precipitate. A system has been devised that will protect TSC in the harsh, acidic environment of the stomach and release TSC in a more favorable pH region. A more favorable pH does exist in the small intestines. […] See Examples below. TSC's effectiveness is believed to be dependant on the TSC concentrations levels found in the body. The effectiveness of TSC can be prolonged by administering TSC orally. […] TSC must be protected from the harsh environment of the stomach and be release in a more favorable, higher pH region of the small intestine. For this study, tablets of TSC were made (Table 1) and were enterically coated with either Eudragit L100 or cellulose acetate phthalate (CAP). The integrity of both types of protective coatings were confirmed in a USP dissolution study in which enterically coated tablets were first place in a dissolution cell containing simulated gastric fluid (SGF), then transferred to another cell containing simulated intestinal fluid (SIF). […] This study was performed according to USP protocols.

[2] = Intestinal (jejunum) absorption of TSC and effect of gamma cyclodextrin; assay type: in vivo; settings: rat jejunum; approx. 60 mg/kg TSC; TSC:gamma cyclodextrin 0.5:1 up to 4:1 (wt:wt); FIG. 2
Procedure: (§1) Male Sprague-Dawley (SD) and Wistar rats weighing approximately 300-400 g each were fasted for 24 hours prior to each experiment. Water was given ad libitum and coprophagy was prevented by using cages with wire-mesh floors. Anesthesia was induced and maintained with isoflurane. The carotid artery was exposed and cannulated with PE-50 tubing. The cannula was secured using silk sutures and 2% lidocaine was applied to the wound.
Following cannulation, a front midline […] was made, exposing the abdomen and intestinal segments. In this study, the jejunum was isolated and the TSC formulation was administered in the proximal jejunum. Approximately 60 mg/kg TSC was administered at various gamma cyclodextrin ratios of 0.5:1 up to 4:1 (wt. TSC:wt. gamma cyclodextrin). Movement of TSC within the intestinal segments was not restricted distal to the site of administration. The intestine was replaced and the abdomen closed with sutures. Approximately 0.3 mL blood samples were taken for the carotid artery at discrete time intervals following TSC administration. A small amount of sodium heparin was used as an anticoagulant. The blood samples were centrifuged and the resulting plasma volume mixed with 3 volumes of methanol and vortexed. The plasma mixture was then centrifuged and the supernatant was analyzed by HPLC to determine TSC levels.

[3] = Scalability for Cmax: TSC with gamma cyclodextrin 1:1 in jejunum; assay type: in vivo; settings: rat jejunum; 2.5, 5, 10 and 60 mg/kg TSC; TSC:gamma cyclodextrin 1:1; FIG. 4
Procedure: The dosage of TSC used in the above study is large, therefore, additional doses of TSC were administered with gamma cyclodextrin at a ratio of 1:1 (wt. TSC:wt. gamma cyclodextrin) in order to determine the scalability of systemic absorption (in terms of Cmax) with respect to TSC dosing amount. For the following study, TSC was administered to the jejunum intestinal segment at the following dosages: 2.5, 5, 10, and 60 mg/kg.
as §1, with “For this study, male” for “Male”
Following cannulation, a front midline […] was made, exposing the abdomen and intestinal segments. In this study, the jejunum was isolated and the TSC formulation was administered in the proximal jejunum. Movement of TSC within the intestinal segments was not restricted distal to the site of administration. The intestine was replaced and the abdomen closed with sutures. […] The plasma mixture was then centrifuged and the supernatant was analyzed by HPLC to determine TSC levels.

[4] = test system: neurons; experiment: Rat model of hemorrhagic stroke (collagenase), neuronal death; assay type: in vivo; settings: TSC injected starting 3 hours after collagenase, sacrifice at 48 hours
Procedure: The first study in which this was done was one conducted using a rat model of hemorrhagic stroke. […] TSC was then injected starting 3 hours after the collagenase was administered, and the animals were sacrificed 48 hours after the administration of the collagenase.
When there is a hemorrhage in the brain, the blood pools and forms a hematoma. Around the periphery of this hematoma, there is a death of neuronal cells. […] Use of the stain, fluorojade, allows one to count the numbers of “dead” neurons in a given brain section of the brain. This was done in the area around the hematomas formed in the hemorrhagic stroke rat model.

[5] = test system: neurons; experiment: Rat model of Parkinson's disease (6-OHDA), pretreatment, live neuron counts; assay type: in vivo; settings: TSC 0.1 mg/kg for 7 days preceding 10 μg 6-OHDA; sacrifice 4 weeks later; FIG. 8
Procedure: Another model that was used examined the effect of TSC on neuronal viability is a rat model of Parkinson's disease. In this model, a burr hole is drilled through the skull and into the region of the substantia nigra. The Parkinson's-like condition is induced by injecting 6-hydroxydopamine (6-OHDA) into the brain. An amount of 10 μg of 6-OHDA is frequently injected in this model, and was used in the first study.
In the study, TSC was injected at a dosage of 0.1 mg/kg for 7 days preceding the injection of the 6-OHDA (the same dosing regimen as had been done in the crocetin study). Following the injection of the 6-OHDA, no further treatments were given over the next 4 weeks.
At that time the rats were sacrificed and the brains removed and sent to Charles River Laboratories for counts of live neurons. […] This allowed the comparison of cell death (treated side count/untreated side count) of the controls, which had been pretreated with saline, to the animals pretreated with TSC.

[6] = test system: neurons; experiment: Rat model of Parkinson's disease (6-OHDA), post-treatment, live neuron counts; assay type: in vivo
Procedure: It is of much more interest to know the effect of post-treatment on neuronal death following the injection of 6-OHDA. To investigate that, 5 μg of 6-OHDA were again injected into the substantia nigra as before, but the treatment began following that injection. The animals were then given daily injections of TSC (0.25 mg/kg) for 4 weeks before sacrifice. The brains were removed and sent to Charles River Laboratories for neuronal counts.

[7] = test system: B16 (mouse melanoma) cells; experiment: Pulmonary metastasis mouse model, B16 tumor counts in lungs; assay type: in vivo
From the text: The pulmonary metastasis mouse model is a widely used model for the evaluation of tumor therapy. With B16 (mouse melanoma) cells, essentially all cells “take” upon intravenous cell injection in the tail vein, and the tumors are preferentially formed in the lungs. Thus, the term pulmonary metastasis is widely used even though every resulting pulmonary nodule is technically an independent “primary” tumor rather than a true metastasis.
There is always a fraction of nodules that is amelanotic (“white”) though, and this requires careful counting in order not to underestimate the tumor burden.
For the subject studies, eight-week-old female C57BL/6 mice were obtained from Charles River Laboratories. The mice were housed in groups of 5 or fewer, and received food and water ab libitum.
B16 cells were cultured by the Center for Cell Signaling of the University of Virginia using a standard protocol. The cells were received while they were in an exponential growth phase. The cells were supplied at a concentration of 5×10^5 cells/mL in Hank's buffered salt solution (HBSS).
The cells were injected immediately upon receipt, and this day was designated as Day 0. On Day 0, all of the mice were injected intravenously in the tail vein with 0.1 mL of the cell suspension, meaning that each mouse received 0.5×10^5 cells. The mice were then left alone until Day 4.
On Day 4, the mice were divided into two groups: Group A, consisting of 5 mice, received an intravenous injection of 0.05 mL of saline in the tail vein. Group B, composed of 7 mice, received an intravenous injection of 0.05 mL of a TSC solution in the tail vein, for a TSC dosage of 0.142 mg/kg/day. The same injections were repeated on Days 5-8 and on Days 11-15. On Day 18, the mice were sacrificed using carbon dioxide. The lungs were excised, rinsed and placed in Fekete's Solution and stored at room temperature.
Later, the lungs were assessed visually, in random, blinded order, to obtain a visual count of the numbers of tumors. […] Thus, the tumors were counted visually in two separate groups: small tumors and medium/large tumors. Although the majority of the tumors were black, there were also some white tumors.

[8] = test system: neurons; settings: study found in the literature; crocetin pretreatment; cited from earlier work
[9] = C57BL/6 mice lungs Day 18, TSC 0.142 mg/kg/day iv, N 7
[10] = mean±standard deviation, C57BL/6 mice lungs Day 18, TSC 0.142 mg/kg/day iv, N 7

SMILES | solubility in the acidic environment of the stomach ([1]; TSC is precipitated) | stability in acidic conditions ([1]; converted to the cis isomer) | effect of γ-cyclodextrin on absorption of TSC [2] | linear regression of Cmax versus TSC dosage [3] | less death of the neurons around the periphery of the hematoma [4] | less neuronal death, fluorojade count of dead neurons around the hematomas ([4]; FIG. 7) | percentage of live neurons (treated side count/untreated side count) vs saline controls [5] | more live neurons vs saline ([6]; 5 μg 6-OHDA, daily TSC 0.25 mg/kg for 4 weeks after injection, p<0.05, FIG. 9) | effect on viability of live neurons, non-6-OHDA side of the brain ([6]; daily TSC 0.25 mg/kg for 4 weeks vs saline, FIG. 10) | Small tumors med. ([7]; C57BL/6 mice lungs Day 18, TSC 0.142 mg/kg/day iv Days 4-8 and 11-15, N 7) | Medium/Large tumors med. [7, 9] | Total tumors med. [7, 9] | statistical difference of tumor counts, TSC group vs saline group ([7]; Day 18, large standard deviations) | Medium/Large tumors mean [7, 10] | Small tumors mean [7, 10] | Total tumors mean [7, 10] | effect of pretreatment on neuronal death following 10 μg 6-OHDA [8]
CC(/C=C/C=C(\C)C(=O)[O-])=C\C=C\C=C(C)\C=C\C=C(/C)C(=O)[O-].[Na+].[Na+] [TSC, trans sodium crocetinate] | practically insoluble | not stable | greatly enhances | excellent fit | about 20% | approximately 30% | approximately doubled | about 20% | no effect | 18 | 19 | 34 | not statistically different | 30 ± 24 | 32 ± 29 | 62 ± 53 | 
CC(/C=C/C=C(\C)C(=O)O)=C\C=C\C=C(C)\C=C\C=C(/C)C(=O)O [crocetin] |  |  |  |  |  |  |  |  |  |  |  |  |  |  |  |  | beneficial effect
